Test system: Th1 (IL-2, IFN-γ, TNF alpha) and Th2 (IL-4, IL-5, IL-10) cytokines
Assay: Th1 & Th2 cytokines in lymph node cells of HBsAg immunized mice by flowcytometry
Type: in vivo
Conditions: adjuvant containing HBsAg; immunized mice day 28, flowcytometry
Text: Cytokines (Th1 & Th2 responses) in serum by ELISA (Quantikine, R & D systems) and lymph node cells by flowcytometry collected from immunized mice on day 28th (Quantikine, optia Kit).
High levels of Th1 cytokines were secreted in response to MDP and FCA containing HBsAg.

SMILES: CC(=O)N[C@H]1C(O)O[C@H](CO)[C@@H](O)[C@@H]1O[C@H](C)C(=O)N[C@@H](C)C(=O)N[C@H](CCC(=O)O)C(N)=O (mixture of isomers) [MDP, Muramyl dipeptide]
- Th1 and Th2 cytokines in lymph nodes cell culture fluid: very low for the Th2 cytokines and increased Th1 type of immune response
